As a reminder, the IC50 is the concentration at which inhibition is half-maximal.

The record followed here is patent US8134007B2, “Pyridine derivatives” (Pfizer Inc., priority 2007, dated 2012).

Format in all cases: cell-based
For assay [1], the system named is tetrodotoxin-sensitive voltage-gated sodium channels including NaV1.2, NaV1.3 and NaV1.7. The assay can be described thus: TTX-S Assay (VIPR, SHSY-5Y cell line, veratridine opener). Particulars: read-out: TTX-S IC50, veratridine 50 μM opener, average of replicates.
A further assay addresses T1, Human Nav1.8 (Homo sapiens, UniProt Q9Y5Y9).
T1 construct: expressed in transfected cells; host or cells: HEK293
In words: VIPR Assay for Nav1.8 Compounds (FRET membrane potential, deltamethrin opener). Particulars: VIPR FRET membrane potential assay, deltamethrin opener; average of replicates; read-out: Nav1.8 IC50.

The target of another assay is T2, Human Nav1.5 (Homo sapiens, UniProt Q14524).
T2 construct: expressed in transfected cells; host or cells: HEK293
T2 sequence (Q14524 whole entry): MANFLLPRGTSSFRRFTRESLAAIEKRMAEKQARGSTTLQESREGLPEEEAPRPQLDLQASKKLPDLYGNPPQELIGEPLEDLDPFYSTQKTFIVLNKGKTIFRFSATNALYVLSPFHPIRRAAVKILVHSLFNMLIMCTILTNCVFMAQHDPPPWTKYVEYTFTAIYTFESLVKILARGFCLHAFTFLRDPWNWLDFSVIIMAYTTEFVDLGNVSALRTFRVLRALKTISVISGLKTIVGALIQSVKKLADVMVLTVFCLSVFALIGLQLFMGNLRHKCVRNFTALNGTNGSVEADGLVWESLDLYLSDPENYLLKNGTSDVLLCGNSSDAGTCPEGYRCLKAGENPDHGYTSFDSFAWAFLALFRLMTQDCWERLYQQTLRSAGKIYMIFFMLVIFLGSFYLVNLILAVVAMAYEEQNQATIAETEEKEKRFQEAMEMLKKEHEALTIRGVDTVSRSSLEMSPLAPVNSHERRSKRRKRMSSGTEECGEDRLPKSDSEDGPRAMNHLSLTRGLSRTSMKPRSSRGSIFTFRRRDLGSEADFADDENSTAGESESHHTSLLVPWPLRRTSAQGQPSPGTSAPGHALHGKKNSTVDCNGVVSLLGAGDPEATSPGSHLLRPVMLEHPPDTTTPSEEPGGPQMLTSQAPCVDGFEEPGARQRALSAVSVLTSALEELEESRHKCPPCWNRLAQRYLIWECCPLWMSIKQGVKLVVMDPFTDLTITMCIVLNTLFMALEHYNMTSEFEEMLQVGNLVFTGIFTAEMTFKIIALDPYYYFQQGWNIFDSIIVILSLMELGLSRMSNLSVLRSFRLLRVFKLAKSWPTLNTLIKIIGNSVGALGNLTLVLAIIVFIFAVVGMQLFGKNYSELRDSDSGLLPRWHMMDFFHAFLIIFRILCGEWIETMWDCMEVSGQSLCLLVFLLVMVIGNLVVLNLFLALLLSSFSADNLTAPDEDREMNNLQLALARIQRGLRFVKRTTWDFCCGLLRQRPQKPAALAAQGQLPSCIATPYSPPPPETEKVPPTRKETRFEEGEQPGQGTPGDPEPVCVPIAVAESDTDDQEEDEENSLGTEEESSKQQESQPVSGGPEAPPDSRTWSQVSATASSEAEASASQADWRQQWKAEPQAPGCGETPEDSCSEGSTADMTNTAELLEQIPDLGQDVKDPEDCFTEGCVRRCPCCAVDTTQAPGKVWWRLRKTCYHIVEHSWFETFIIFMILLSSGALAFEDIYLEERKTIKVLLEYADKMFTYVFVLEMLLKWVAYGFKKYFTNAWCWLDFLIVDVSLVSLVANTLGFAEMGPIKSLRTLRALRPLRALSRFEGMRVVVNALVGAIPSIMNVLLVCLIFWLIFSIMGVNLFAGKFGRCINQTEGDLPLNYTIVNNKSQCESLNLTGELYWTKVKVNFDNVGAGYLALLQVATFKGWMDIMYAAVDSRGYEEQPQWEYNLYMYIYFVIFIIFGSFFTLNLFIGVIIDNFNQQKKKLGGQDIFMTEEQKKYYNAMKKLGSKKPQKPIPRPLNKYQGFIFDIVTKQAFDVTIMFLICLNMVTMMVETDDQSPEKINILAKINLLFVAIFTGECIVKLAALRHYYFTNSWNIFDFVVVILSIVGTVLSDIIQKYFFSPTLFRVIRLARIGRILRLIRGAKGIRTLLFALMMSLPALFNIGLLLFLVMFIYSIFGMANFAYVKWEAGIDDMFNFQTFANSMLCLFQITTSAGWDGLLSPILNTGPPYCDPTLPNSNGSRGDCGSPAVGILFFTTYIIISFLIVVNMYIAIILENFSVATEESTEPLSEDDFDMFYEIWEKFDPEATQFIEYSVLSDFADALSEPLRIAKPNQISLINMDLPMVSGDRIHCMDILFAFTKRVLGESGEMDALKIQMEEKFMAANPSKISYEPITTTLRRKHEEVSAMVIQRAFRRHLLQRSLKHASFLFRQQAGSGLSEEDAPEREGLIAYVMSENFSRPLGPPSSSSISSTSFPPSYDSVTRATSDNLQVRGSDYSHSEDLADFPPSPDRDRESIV
In words: Nav1.5 Assay (VIPR, HEK293 cells). Particulars: HEK293 cells expressing Human Nav1.5; average of replicates; read-out: Nav1.5 IC50. As for the experimental part:
The Nav1.5 assay is performed in HEK293 cells expressing Human Nav1.5 in the same way as the Nav1.8 assay.
Where replicate experiments were conducted resulting in multiple sets of data for a test compound, the data presented represent the average value from all replicate experiments.

T1 sequence (Q9Y5Y9 whole entry): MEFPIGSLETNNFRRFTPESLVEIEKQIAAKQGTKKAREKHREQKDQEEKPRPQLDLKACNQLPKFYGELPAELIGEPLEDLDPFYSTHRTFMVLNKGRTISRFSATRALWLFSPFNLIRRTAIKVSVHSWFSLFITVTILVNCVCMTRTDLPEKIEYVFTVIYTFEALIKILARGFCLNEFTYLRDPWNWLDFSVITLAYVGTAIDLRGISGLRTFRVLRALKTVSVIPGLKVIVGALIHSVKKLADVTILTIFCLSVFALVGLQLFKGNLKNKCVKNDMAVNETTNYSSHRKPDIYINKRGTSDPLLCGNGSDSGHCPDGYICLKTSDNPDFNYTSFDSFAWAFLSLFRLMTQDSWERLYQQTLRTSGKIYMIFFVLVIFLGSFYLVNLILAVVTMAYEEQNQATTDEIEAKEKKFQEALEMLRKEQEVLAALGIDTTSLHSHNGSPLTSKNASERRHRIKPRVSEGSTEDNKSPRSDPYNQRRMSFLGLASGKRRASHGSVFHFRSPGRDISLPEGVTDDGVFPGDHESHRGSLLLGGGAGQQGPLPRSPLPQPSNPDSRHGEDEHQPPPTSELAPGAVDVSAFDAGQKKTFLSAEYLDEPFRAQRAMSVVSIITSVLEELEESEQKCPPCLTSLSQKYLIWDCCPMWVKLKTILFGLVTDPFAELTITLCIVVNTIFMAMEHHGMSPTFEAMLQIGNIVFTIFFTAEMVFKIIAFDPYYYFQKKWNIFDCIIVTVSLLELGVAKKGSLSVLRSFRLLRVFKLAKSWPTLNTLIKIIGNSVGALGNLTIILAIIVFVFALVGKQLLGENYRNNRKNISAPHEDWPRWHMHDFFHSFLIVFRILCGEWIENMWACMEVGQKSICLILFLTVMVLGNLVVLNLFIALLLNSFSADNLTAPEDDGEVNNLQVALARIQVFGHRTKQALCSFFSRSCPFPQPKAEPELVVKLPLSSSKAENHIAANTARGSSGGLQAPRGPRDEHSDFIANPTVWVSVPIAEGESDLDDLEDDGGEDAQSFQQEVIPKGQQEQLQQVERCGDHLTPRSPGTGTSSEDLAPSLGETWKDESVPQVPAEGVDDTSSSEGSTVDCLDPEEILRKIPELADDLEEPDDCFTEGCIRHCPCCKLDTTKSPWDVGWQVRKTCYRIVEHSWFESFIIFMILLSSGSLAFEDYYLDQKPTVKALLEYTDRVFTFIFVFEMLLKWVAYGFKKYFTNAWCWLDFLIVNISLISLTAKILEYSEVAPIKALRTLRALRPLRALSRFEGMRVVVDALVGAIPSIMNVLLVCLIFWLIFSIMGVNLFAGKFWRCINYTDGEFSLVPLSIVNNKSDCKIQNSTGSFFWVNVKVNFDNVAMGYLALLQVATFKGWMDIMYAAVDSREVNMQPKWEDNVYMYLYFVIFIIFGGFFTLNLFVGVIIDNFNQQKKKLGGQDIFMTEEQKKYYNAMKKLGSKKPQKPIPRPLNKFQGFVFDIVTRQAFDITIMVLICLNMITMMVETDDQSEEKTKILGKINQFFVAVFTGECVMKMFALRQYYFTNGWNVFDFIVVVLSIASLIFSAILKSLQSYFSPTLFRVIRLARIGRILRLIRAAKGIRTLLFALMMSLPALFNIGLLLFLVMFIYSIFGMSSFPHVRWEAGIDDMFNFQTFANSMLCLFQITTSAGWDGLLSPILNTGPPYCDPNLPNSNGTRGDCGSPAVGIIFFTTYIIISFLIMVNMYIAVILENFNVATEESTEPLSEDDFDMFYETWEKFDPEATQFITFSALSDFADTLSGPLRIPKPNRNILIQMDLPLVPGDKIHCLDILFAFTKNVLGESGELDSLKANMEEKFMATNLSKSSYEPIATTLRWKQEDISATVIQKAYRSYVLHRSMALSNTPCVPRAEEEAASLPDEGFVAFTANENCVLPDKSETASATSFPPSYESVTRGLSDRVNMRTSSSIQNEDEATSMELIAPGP

`Cn1nccc1C(=O)Nc1ccc(-c2cc(OC(F)(F)F)ccc2Cl)c(N)n1` [Example 18, N-{6-Amino-5-[2-chloro-5-(trifluoromethoxy)phenyl]pyridin-2-yl}-1-methyl-1H-pyrazole-5-carboxamide]: the IC50 in assay [1] turned out to be 1800 nM; at Human Nav1.8, 1600 nM; on Human Nav1.5, 8.5 µM.

Consider `Cn1nccc1C(=O)Nc1ccc(-c2cc(F)ccc2C(F)(F)F)c(N)n1` [Example 12, N-{6-Amino-5-[5-fluoro-2-(trifluoromethyl)phenyl]pyridin-2-yl}-1-methyl-1H-pyrazole-5-carboxamide], for which the IC50 is > 32000 nM in assay [1], 3000 nM at Human Nav1.8 and > 32 µM at Human Nav1.5.
